Measurements taken from patent USRE46856E1, “Substituted 2,3-dihydroimidazo[1,2-c]quinazoline derivatives useful for treating hyper-proliferative disorders and diseases associated with angiogenesis” (Bayer Intellectual Property GmbH, priority 2006, dated 2018).
Counter-ions that a name gives are not always drawn.

The compounds below were run on IGF-1 induced AKT phosphorylation in A549 cells (assay: IGF-1 induced AKT phosphorylation assay (A549 cell assay)). Details: Homo sapiens; A549 cells, 25 ng/ml IGF-1, phospho-AKT(Ser 473); read-out: average IC50 in the A549 cell assay.
Type: cell-based
Text: [Determination of IC50 Values of Compounds in Cell Based Assays of PI3K Activity] 96-well collagen treated clear bottom/black sided Costar plates were purchased from CORNING LIFE SCIENCES (Corning, N.Y.; at.#3904). Gibco RPMI medium (Cat.#11875), Biosource anti-phospho-AKT([…]) antibody (Cat.#44-621G) and recombinant IGF-1 (Cat.#PHG0074) were purchased from INVITROGEN (Carlsbad, Calif.). The secondary donkey anti-rabbit IgG horse radish peroxidase conjugate (Cat. #N[…]) and ECL chemiluminesence reagent (Cat.#RPN2209) were purchased from […] (Buckinghamshire, UK). Cell culture tested bovine serum albumin solution (35% in DPBS; Cat.#A7979) and all other chemicals were purchased from SIGMA (St. Louis, Mo.). The Wallac Victor2 1420 Multilabel HTS Counter was purchased from […] (Wellesley, Mass.) […] All wells (except no IGF-1 controls) were then treated with 25 ng/ml IGF-1 for 10 minutes at 37° C. in a 5% CO2 incubator. Following removal of the supernatants and washing with the wells with TBS (50 mM Tris pH 8.0 containing 138 mM NaCL and 27 mM KCl), 200 µL of 3.7% formaldehyde in TBS was added to each well, and the plate was incubated at 4° C. for 10 minutes. Supernatants were once again removed and replaced with 50 μL Methanol (-20° C.) and the plate incubated at 4° C. for 5 minutes. 200 μL of 0.1% BSA in TBS was then added to each well and the plate incubated at room temperature for 1⁄2 hour. Supernatants were removed and 50 μL of a solution comprising the primary anti-phospho-AKT([…]) antibody diluted 1:250 in TBS containing 0.1% BSA was added to each well (except control/background wells). The plate was then incubated for 11⁄2 hour at room temperature. Supernatants were removed, each well was washed 3 times with 200 μL TBS, and 100 μL of a solution containing the secondary donkey anti-rabbit IgG antibody HRP-conjugate diluted 1:100 in TBS-T (TBS containing 0.1% triton). Plates were then incubated for 1 hour at room temperature. After removing the secondary antibody, each well was washed 6 times with cold TBS-T, 100 μL of ECL was added to each well, and the plate was placed on an orbital shaker for 1 minute. The plates were then read on a Wallac Victor2 1420 Multilabel HTS Counter using the luminometry window (maximum light detection is measured at […]). IC50 values were determined from the inhibition curve.
`COc1c(OCCCN2CCOCC2)ccc2c1N=C(NC(=O)c1cnccn1)N1CCN=C21` [Example 81, N-[7-methoxy-8-(3-morpholin-4-ylpropoxy)-2,3-dihydroimidazo[1,2-c]quinazolin-5-yl]pyrazine-2-carboxamide] gave an IC50 greater than 1000 nM. In the case of `COc1c(OCCN)ccc2c1N=C(NC(=O)c1cccnc1)N1CCN=C21` [Example 82, N-[8-(2-aminoethoxy)-7-methoxy-2,3-dihydroimidazo[1,2-c]quinazolin-5-yl]nicotinamide], the IC50 is reported as 100 to 1000 nM. With `COc1c(OCCCN2CCOCC2)ccc2c1N=C(NC(=O)c1ccc(N)nc1)N1CCN=C21` [Example 83, 6-amino-N-[7-methoxy-8-(3-morpholin-4-ylpropoxy)-2,3-dihydroimidazo[1,2-c]quinazolin-5-yl]nicotinamide] the IC50 was less than 100 nM. Work on `COc1c(OCCCN2CCOCC2)ccc2c1N=C(NC(=O)c1ccncc1)N1CCN=C21` [Example 84, N-[7-methoxy-8-(3-morpholin-4-ylpropoxy)-2,3-dihydroimidazo[1,2-c]quinazolin-5-yl]isonicotinamide] yielded an IC50 of 100 to 1000 nM. For `CCN(CC)CCCOc1ccc2c(c1OC)N=C(NC(=O)c1cccnc1)N1CCN=C21` [Example 85, N-{8-[3-(diethylamino)propoxy]-7-methoxy-2,3-dihydroimidazo[1,2-c]quinazolin-5-yl}nicotinamide], the IC50 was less than 100 nM. Compound `COc1c(OCCN(C(C)C)C(C)C)ccc2c1N=C(NC(=O)c1cccnc1)N1CCN=C21` [Example 86, N-{8-[2-(diisopropylamino)ethoxy]-7-methoxy-2,3-dihydroimidazo[1,2-c]quinazolin-5-yl}nicotinamide] has an IC50 of 100 to 1000 nM. In the case of `CCN(CC)CCOc1ccc2c(c1OC)N=C(NC(=O)c1cccnc1)N1CCN=C21` [Example 87, N-{8-[2-(diethylamino)ethoxy]-7-methoxy-2,3-dihydroimidazo[1,2-c]quinazolin-5-yl}nicotinamide], the IC50 is reported as 100 to 1000 nM. Compound `COc1c(OCCCN(C)C)ccc2c1N=C(NC(=O)c1cccnc1)N1CCN=C21` [Example 88, N-{8-[3-(dimethylamino)propoxy]-7-methoxy-2,3-dihydroimidazo[1,2-c]quinazolin-5-yl}nicotinamide] has an IC50 of 100 to 1000 nM. Work on `COc1c(OCCN(C)C)ccc2c1N=C(NC(=O)c1cccnc1)N1CCN=C21` [Example 89, N-{8-[2-(dimethylamino)ethoxy]-7-methoxy-2,3-dihydroimidazo[1,2-c]quinazolin-5-yl}nicotinamide] yielded an IC50 of 100 to 1000 nM. Work on `CNc1ncc(C(=O)NC2=Nc3c(ccc(OCCCN4CCOCC4)c3OC)C3=NCCN23)cn1` [Example 90, N-[7-methoxy-8-(3-morpholin-4-ylpropoxy)-2,3-dihydroimidazo[1,2-c]quinazolin-5-yl]-2-(methylamino)pyrimidine-5-carboxamide] yielded an IC50 of less than 100 nM. In the case of `COc1c(OCCCN2CCOCC2)ccc2c1N=C(NC(=O)c1cnc(SC)nc1)N1CCN=C21` [Example 91, N-[7-methoxy-8-(3-morpholin-4-ylpropoxy)-2,3-dihydroimidazo[1,2-c]quinazolin-5-yl]-2-(methylthio)pyrimidine-5-carboxamide], the IC50 is reported as less than 100 nM. `COc1c(OCCCN)ccc2c1N=C(NC(=O)c1cccnc1)N1CCN=C21` [Example 92, N-[8-(3-aminopropoxy)-7-methoxy-2,3-dihydroimidazo[1,2-c]quinazolin-5-yl]nicotinamide trifluoroacetate] showed an IC50 greater than 1000 nM. In the case of `COc1c(OCCCN2CCOCC2)ccc2c1N=C(NC(=O)c1sc(C)nc1C)N1CCN=C21` [Example 94, N-[7-methoxy-8-(3-morpholin-4-ylpropoxy)-2,3-dihydroimidazo[1,2-c]quinazolin-5-yl]-2,4-dimethyl-1,3-thiazole-5-carboxamide], the IC50 is reported as less than 100 nM. Work on `COc1ncc(C(=O)NC2=Nc3c(ccc(OCCCN4CCOCC4)c3OC)C3=NCCN23)cn1` [Example 95, 2-methoxy-N-[7-methoxy-8-(3-morpholin-4-ylpropoxy)-2,3-dihydroimidazo[1,2-c]quinazolin-5-yl]pyrimidine-5-carboxamide] yielded an IC50 of less than 100 nM. In the case of `COc1c(OCCCN2CCOCC2)ccc2c1N=C(NC(=O)c1ccoc1)N1CCN=C21` [Example 96, N-[7-methoxy-8-(3-morpholin-4-ylpropoxy)-2,3-dihydroimidazo[1,2-c]quinazolin-5-yl]-3-furamide], the IC50 is reported as 100 to 1000 nM. `COc1c(OCCCN2CCOCC2)ccc2c1N=C(NC(=O)c1ccsc1)N1CCN=C21` [Example 97, N-[7-methoxy-8-(3-morpholin-4-ylpropoxy)-2,3-dihydroimidazo[1,2-c]quinazolin-5-yl]thiophene-3-carboxamide] gave an IC50 of 100 to 1000 nM. With `COc1ccc(C(=O)NC2=Nc3c(ccc(OCCCN4CCOCC4)c3OC)C3=NCCN23)cn1` [Example 99, 6-methoxy-N-[7-methoxy-8-(3-morpholin-4-ylpropoxy)-2,3-dihydroimidazo[1,2-c]quinazolin-5-yl]nicotinamide] the IC50 was less than 100 nM. `COc1cncc(C(=O)NC2=Nc3c(ccc(OCCCN4CCOCC4)c3OC)C3=NCCN23)c1` [Example 100, 5-methoxy-N-[7-methoxy-8-(3-morpholin-4-ylpropoxy)-2,3-dihydroimidazo[1,2-c]quinazolin-5-yl]nicotinamide] was tested, and the IC50 was 100 to 1000 nM. In the case of `COc1c(OCCCN2CCOCC2)ccc2c1N=C(NC(=O)c1ccc(C)nc1)N1CCN=C21` [Example 101, N-[7-methoxy-8-(3-morpholin-4-ylpropoxy)-2,3-dihydroimidazo[1,2-c]quinazolin-5-yl]-6-methylnicotinamide], the IC50 is reported as less than 100 nM. Work on `COc1c(OCCCN2CCOCC2)ccc2c1N=C(NC(=O)c1cccnc1)N1CCN=C21` [Example 103, N-[7-methoxy-8-(3-morpholin-4-ylpropoxy)-2,3-dihydroimidazo[1,2-c]quinazolin-5-yl]nicotinamide] yielded an IC50 of less than 100 nM.
